Legend:
[1] = rat, in vivo, sc; cited from earlier work
Experimental: The IVIVC model development in this study was carried out using Berkeley Madonna (program version 8.3.14). Differences in PK profiles by formulations were evaluated by adding a release compartment to reflect the release characteristic.

[2] = Solvent selection for the drug phase: dissolution of leuprolide; format: physicochemical
Excerpt: Solubility, viscosity, spray pattern, and density of polymer solution were investigated using four solvents (methylene chloride, acetonitrile, ethyl acetate, and acetone), and the optimal solvent was selected from among these. Parameters including dissolution of the leuprolide, miscibility with the solvent of polymer phase, drying degree of dry matter, and density of drug solution were investigated using three solvents (water, ethanol, and methanol), and the optimal solvent was selected.

SMILES: CCNC(=O)[C@@H]1CCCN1C(=O)[C@H](CCCNC(=N)N)NC(=O)[C@H](CC(C)C)NC(=O)[C@@H](CC(C)C)NC(=O)[C@H](Cc1ccc(O)cc1)NC(=O)[C@H](CO)NC(=O)[C@H](Cc1c[nH]c2ccccc12)NC(=O)[C@H](Cc1c[nH]cn1)NC(=O)[C@@H]1CCC(=O)N1 [leuprolide]
- CL (clearance) [1]: 514.46 mL/h
- Vd (volume of distribution) [1]: 487.40 mL
- ka (absorption rate constant) [1]: 16.67 h⁻¹
- Dissolution of Leuprolide ([2]; solvent ethanol): dissolves leuprolide slowly, and the drug easily precipitated
- Dissolution of Leuprolide ([2]; solvent methanol): high solubility
- Dissolution of Leuprolide ([2]; solvent water): high solubility
